PubChem BioAssay AID1963836 (Molecular Pharmacology Branch, DTP, NCI, 2024)

Test system: 857933-349-R-J2-PDC complex spheroid viability
Assay: Anticancer human tumor 857933-349-R-J2-PDC patient-derived colon adenocarcinoma cell line growth inhibition [POLQ]
Conditions: for IC50: curve of first compound; for viability, T/C: stronger effect = lower value
How it was run: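 Growth inhibition in 3D: complex spheroids (tumor PDC, HUVEC, MSC) treated with POLQ inhibitor combinations; where Cmax unknown, highest tested concentration 10 microM, except SN-38 at 1 microM.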

[1] = second compound 0.0316 µM, first compound 0.00316 µM
[2] = second compound 0.0316 µM, first compound 0.01 µM
[3] = second compound 0.0316 µM, first compound 0.0316 µM
[4] = second compound 0.0316 µM, first compound 0.1 µM
[5] = second compound 0.0316 µM, first compound 0.316 µM
[6] = second compound 0.0316 µM, first compound 1 µM
[7] = second compound 0.1 µM, first compound 0.00316 µM
[8] = second compound 0.1 µM, first compound 0.01 µM
[9] = second compound 0.1 µM, first compound 0.0316 µM
[10] = second compound 0.1 µM, first compound 0.1 µM
[11] = second compound 0.1 µM, first compound 0.316 µM
[12] = second compound 0.1 µM, first compound 1 µM
[13] = second compound 0.316 µM, first compound 0.00316 µM
[14] = second compound 0.316 µM, first compound 0.01 µM
[15] = second compound 0.316 µM, first compound 0.0316 µM
[16] = second compound 0.316 µM, first compound 0.1 µM
[17] = second compound 0.316 µM, first compound 0.316 µM
[18] = second compound 0.316 µM, first compound 1 µM
[19] = second compound 1 µM, first compound 0.00316 µM
[20] = second compound 1 µM, first compound 0.01 µM
[21] = second compound 1 µM, first compound 0.0316 µM
[22] = second compound 1 µM, first compound 0.1 µM
[23] = second compound 1 µM, first compound 0.316 µM
[24] = second compound 1 µM, first compound 1 µM
[25] = second compound 3.16 µM, first compound 0.00316 µM
[26] = second compound 3.16 µM, first compound 0.01 µM
[27] = second compound 3.16 µM, first compound 0.0316 µM
[28] = second compound 3.16 µM, first compound 0.1 µM
[29] = second compound 3.16 µM, first compound 0.316 µM
[30] = second compound 3.16 µM, first compound 1 µM
[31] = second compound 10 µM, first compound 0.00316 µM
[32] = second compound 10 µM, first compound 0.01 µM
[33] = second compound 10 µM, first compound 0.0316 µM
[34] = second compound 10 µM, first compound 0.1 µM
[35] = second compound 10 µM, first compound 0.316 µM
[36] = second compound 10 µM, first compound 1 µM
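Further: spheroids exposed to compounds for seven days before readout.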

C=CCn1c(=O)c2cnc(Nc3ccc(N4CCN(C)CC4)cc3)nc2n1-c1cccc(C(C)(C)O)n1 + Cc1cccc(N(C)C(=O)C2C(O)CCN2c2nc(C)cc(C(F)(F)F)c2C#N)c1
IC50 (second compound 0.0316 µM): > 1000 nM | IC50 (second compound 0.1 µM): > 1000 nM | IC50 (second compound 0.316 µM): > 1000 nM | IC50 (second compound 1 µM): > 1000 nM | IC50 (second compound 3.16 µM): > 1000 nM | IC50 (second compound 10 µM): > 1000 nM | viability, T/C [1]: 103% | viability, T/C [2]: 98.2% | viability, T/C [3]: 96.8% | viability, T/C [4]: 112% | viability, T/C [5]: 96.2% | viability, T/C [6]: 79.3% | viability, T/C [7]: 99.4% | viability, T/C [8]: 98.9% | viability, T/C [9]: 88.2% | viability, T/C [10]: 84% | viability, T/C [11]: 99% | viability, T/C [12]: 77.7% | viability, T/C [13]: 97.8% | viability, T/C [14]: 97.2% | viability, T/C [15]: 114% | viability, T/C [16]: 106% | viability, T/C [17]: 93% | viability, T/C [18]: 68.2% | viability, T/C [19]: 92.8% | viability, T/C [20]: 91.4% | viability, T/C [21]: 108% | viability, T/C [22]: 103% | viability, T/C [23]: 117% | viability, T/C [24]: 80.9% | viability, T/C [25]: 112% | viability, T/C [26]: 88.9% | viability, T/C [27]: 111% | viability, T/C [28]: 89% | viability, T/C [29]: 94.1% | viability, T/C [30]: 77.8% | viability, T/C [31]: 82.1% | viability, T/C [32]: 111% | viability, T/C [33]: 104% | viability, T/C [34]: 87% | viability, T/C [35]: 101% | viability, T/C [36]: 71%

CC[C@@]1(O)C(=O)OCc2c1cc1n(c2=O)Cc2cc3c(CN(C)C)c(O)ccc3nc2-1 + Cc1cccc(N(C)C(=O)C2C(O)CCN2c2nc(C)cc(C(F)(F)F)c2C#N)c1
IC50 (second compound 0.0316 µM): 65.2 nM | IC50 (second compound 0.1 µM): 99.9 nM | IC50 (second compound 0.316 µM): 69.5 nM | IC50 (second compound 1 µM): 72.2 nM | IC50 (second compound 3.16 µM): 97.4 nM | IC50 (second compound 10 µM): 18.9 nM | viability, T/C (second compound 0.0316 µM, first compound 0.000316 µM): 98.7% | viability, T/C (second compound 0.0316 µM, first compound 0.001 µM): 102% | viability, T/C [1]: 92.8% | viability, T/C [2]: 80.6% | viability, T/C [3]: 61.8% | viability, T/C [4]: 43.1% | viability, T/C (second compound 0.1 µM, first compound 0.000316 µM): 106% | viability, T/C (second compound 0.1 µM, first compound 0.001 µM): 94.5% | viability, T/C [7]: 88.4% | viability, T/C [8]: 92.3% | viability, T/C [9]: 73.6% | viability, T/C [10]: 49.3% | viability, T/C (second compound 0.316 µM, first compound 0.000316 µM): 76.4% | viability, T/C (second compound 0.316 µM, first compound 0.001 µM): 108% | viability, T/C [13]: 91.4% | viability, T/C [14]: 78% | viability, T/C [15]: 76.2% | viability, T/C [16]: 38.7% | viability, T/C (second compound 1 µM, first compound 0.000316 µM): 98.8% | viability, T/C (second compound 1 µM, first compound 0.001 µM): 75.8% | viability, T/C [19]: 83.8% | viability, T/C [20]: 73.4% | viability, T/C [21]: 76.6% | viability, T/C [22]: 40.7% | viability, T/C (second compound 3.16 µM, first compound 0.000316 µM): 95.7% | viability, T/C (second compound 3.16 µM, first compound 0.001 µM): 79.3% | viability, T/C [25]: 77.9% | viability, T/C [26]: 74.1% | viability, T/C [27]: 69.4% | viability, T/C [28]: 46% | viability, T/C (second compound 10 µM, first compound 0.000316 µM): 77.9% | viability, T/C (second compound 10 µM, first compound 0.001 µM): 92.3% | viability, T/C [31]: 85.2% | viability, T/C [32]: 56.6% | viability, T/C [33]: 50.6% | viability, T/C [34]: 37.9%

CCc1c2c(nc3ccc(O)cc13)-c1cc3c(c(=O)n1C2)COC(=O)[C@]3(O)CC + Cc1cccc(N(C)C(=O)C2C(O)CCN2c2nc(C)cc(C(F)(F)F)c2C#N)c1
IC50 (second compound 0.0316 µM): 21.5 nM | IC50 (second compound 0.1 µM): 16.7 nM | IC50 (second compound 0.316 µM): 14 nM | IC50 (second compound 1 µM): 15.6 nM | IC50 (second compound 3.16 µM): 13.4 nM | IC50 (second compound 10 µM): 13.6 nM | viability, T/C [1]: 75% | viability, T/C [2]: 78.5% | viability, T/C [3]: 36.5% | viability, T/C [4]: 20% | viability, T/C [5]: 16.1% | viability, T/C [6]: 5.22% | viability, T/C [7]: 70.1% | viability, T/C [8]: 68.6% | viability, T/C [9]: 27.4% | viability, T/C [10]: 17.7% | viability, T/C [11]: 13.2% | viability, T/C [12]: 3.51% | viability, T/C [13]: 67% | viability, T/C [14]: 59.5% | viability, T/C [15]: 32% | viability, T/C [16]: 20.2% | viability, T/C [17]: 15% | viability, T/C [18]: 4.16% | viability, T/C [19]: 73.9% | viability, T/C [20]: 62.5% | viability, T/C [21]: 30.8% | viability, T/C [22]: 19.8% | viability, T/C [23]: 14.1% | viability, T/C [24]: 5.21% | viability, T/C [25]: 72.9% | viability, T/C [26]: 59.6% | viability, T/C [27]: 23.5% | viability, T/C [28]: 19.1% | viability, T/C [29]: 12.3% | viability, T/C [30]: 4.25% | viability, T/C [31]: 65.1% | viability, T/C [32]: 60.2% | viability, T/C [33]: 22.4% | viability, T/C [34]: 17.7% | viability, T/C [35]: 17.1% | viability, T/C [36]: 2.64%

O=C(c1cc(Cc2n[nH]c(=O)c3ccccc23)ccc1F)N1CCN(C(=O)C2CC2)CC1 + Cc1cccc(N(C)C(=O)C2C(O)CCN2c2nc(C)cc(C(F)(F)F)c2C#N)c1
IC50 (second compound 0.0316 µM): > 10000 nM | IC50 (second compound 0.1 µM): > 10000 nM | IC50 (second compound 0.316 µM): > 10000 nM | IC50 (second compound 1 µM): > 10000 nM | IC50 (second compound 3.16 µM): > 10000 nM | IC50 (second compound 10 µM): > 10000 nM | viability, T/C [3]: 109% | viability, T/C [4]: 99.4% | viability, T/C [5]: 85.3% | viability, T/C [6]: 72.5% | viability, T/C (second compound 0.0316 µM, first compound 3.16 µM): 93.4% | viability, T/C (second compound 0.0316 µM, first compound 10 µM): 84.7% | viability, T/C [9]: 109% | viability, T/C [10]: 101% | viability, T/C [11]: 93.8% | viability, T/C [12]: 83.8% | viability, T/C (second compound 0.1 µM, first compound 3.16 µM): 69.7% | viability, T/C (second compound 0.1 µM, first compound 10 µM): 72.9% | viability, T/C [15]: 107% | viability, T/C [16]: 98.1% | viability, T/C [17]: 70.5% | viability, T/C [18]: 96.2% | viability, T/C (second compound 0.316 µM, first compound 3.16 µM): 89.8% | viability, T/C (second compound 0.316 µM, first compound 10 µM): 80.3% | viability, T/C [21]: 84.7% | viability, T/C [22]: 80.9% | viability, T/C [23]: 86.2% | viability, T/C [24]: 79% | viability, T/C (second compound 1 µM, first compound 3.16 µM): 73.7% | viability, T/C (second compound 1 µM, first compound 10 µM): 82.6% | viability, T/C [27]: 67% | viability, T/C [28]: 79.2% | viability, T/C [29]: 81.6% | viability, T/C [30]: 87.2% | viability, T/C (second compound 3.16 µM, first compound 3.16 µM): 72.8% | viability, T/C (second compound 3.16 µM, first compound 10 µM): 92.2% | viability, T/C [33]: 86.5% | viability, T/C [34]: 110% | viability, T/C [35]: 82.6% | viability, T/C [36]: 84% | viability, T/C (second compound 10 µM, first compound 3.16 µM): 71.3% | viability, T/C (second compound 10 µM, first compound 10 µM): 79.9%
